Results: PMC10762035, “Molecular basis of human trace amine-associated receptor 1 activation” (Nature Communications, 2024)
Substitutions are numbered along the chain they refer to. Several values for one entry are separate records, joined by “and”; a condition that tells them apart may be missing. Identical values can stand only once.

How the values were obtained:
Format in all cases: cell-based
hTA1 = target: T1, hTA1 (Homo sapiens, UniProt Q96RJ0); assay: GloSensor cAMP accumulation assay, concentration response, wild-type hTA1 in transfected HEK293T cells; conditions: for Dose-response curves for asenapine vs endogenous trace amines: log[Compound], replicate values (N=2);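 on all read-outs here: luminescence read after 30 min compound exposure at room temperature in cells preloaded with D-Luciferin, reflecting Gs-driven cAMP rise, efficacy scaled to the maximal β-PEA response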
T1 construct: expressed in transfected cells; host or cells: HEK293T
T1 sequence (Q96RJ0 1-339): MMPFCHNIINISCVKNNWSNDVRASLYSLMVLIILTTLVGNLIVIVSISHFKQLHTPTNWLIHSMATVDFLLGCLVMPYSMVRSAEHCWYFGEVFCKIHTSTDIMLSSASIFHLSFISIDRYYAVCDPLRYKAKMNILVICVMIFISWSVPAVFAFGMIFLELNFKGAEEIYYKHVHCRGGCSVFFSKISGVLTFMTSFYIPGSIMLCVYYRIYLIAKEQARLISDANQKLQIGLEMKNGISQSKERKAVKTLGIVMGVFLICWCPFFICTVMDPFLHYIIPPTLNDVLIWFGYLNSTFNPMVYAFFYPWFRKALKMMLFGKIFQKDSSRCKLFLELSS

hTA1 V184P = target: T2, hTA1 V184P (Homo sapiens, UniProt Q96RJ0, V184P); assay: GloSensor cAMP accumulation assay, V184P mutant; conditions: for cAMP accumulation response, single replicate values (source data, Supplementary Figure 5): hTA1 V184P (N=2), log[Compound]
T2 construct: expressed in transfected cells; host or cells: HEK293T
T2 sequence (Q96RJ0 1-339 V184P): T1 sequence (Q96RJ0 1-339) with V184P

hTA1 b2N = target: T3, hTA1 b2N (Homo sapiens, UniProt Q96RJ0); assay: GloSensor cAMP accumulation assay, b2N construct; conditions: b2N, n=2
T3 construct: read by me as the first 25 residues of β2AR (N); expressed in transfected cells; host or cells: HEK293T
T3 sequence (Q96RJ0 with tags, fused parts or gaps): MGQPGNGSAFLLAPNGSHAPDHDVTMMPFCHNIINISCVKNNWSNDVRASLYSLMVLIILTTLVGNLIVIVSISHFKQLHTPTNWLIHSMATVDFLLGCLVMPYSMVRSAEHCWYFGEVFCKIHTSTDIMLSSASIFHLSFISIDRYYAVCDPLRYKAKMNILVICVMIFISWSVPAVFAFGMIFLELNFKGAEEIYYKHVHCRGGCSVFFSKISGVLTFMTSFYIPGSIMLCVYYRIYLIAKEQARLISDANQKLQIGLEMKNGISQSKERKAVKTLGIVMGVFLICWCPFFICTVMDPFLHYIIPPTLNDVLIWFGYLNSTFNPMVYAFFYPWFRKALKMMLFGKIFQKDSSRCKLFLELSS

hTA1 S107C = target: T4, hTA1 S107C (Homo sapiens, UniProt Q96RJ0, S107C); assay: GloSensor cAMP accumulation assay, S107C mutant;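 further: cells transiently co-expressing receptor and GloSensor biosensor, luminescence read after 30 min agonist exposure at room temperature, concentration-response fitted by nonlinear regression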
T4 construct: expressed in transfected cells; host or cells: HEK293T
T4 sequence (Q96RJ0 1-339 S107C): T1 sequence (Q96RJ0 1-339) with S107C

hTA1 C88S = target: T5, hTA1 C88S (Homo sapiens, UniProt Q96RJ0, C88S); assay: GloSensor cAMP accumulation assay, C88S mutant; conditions: C88S
T5 construct: expressed in transfected cells; host or cells: HEK293T
T5 sequence (Q96RJ0 1-339 C88S): T1 sequence (Q96RJ0 1-339) with C88S

[1] = hTA1 V184P mutant minus WT average

Compound: NCCc1ccccc1 [β-PEA, β-phenethylamine]
- Emax values, Avg (hTA1; WT hTA1, Figure 5B, β-PEA = 100, average of the independent experiments): 100
- Emax values, Mean (hTA1; WT hTA1, Figure 5B, β-PEA = 100, each row one independent experiment (3 replicates)): 100
- pEC50 values, Avg (hTA1; WT hTA1, average of the two experiments, Figure 2B source data): 7.094
- pEC50 values, Mean (hTA1; WT hTA1, each line an independent experiment, 3 replicates, Figure 2B source data): 7.155 and 7.032
- Emax values, Avg (hTA1; WT hTA1, β-PEA = 100, average of the two experiments): 100
- Emax values, Mean (hTA1; WT hTA1, β-PEA = 100, each line an independent experiment, 3 replicates): 100
- Emax values, Avg (hTA1; WT, Avg of the two experiments, β-PEA = 100): 100
- Emax values, Avg (hTA1; WT, average of the experiments, β-PEA = 100): 100
- Emax values, Avg (hTA1; WT, average of the two experiments): 100
- Emax values, Mean (hTA1; WT, mean of each independent experiment (3 replicates), β-PEA = 100): 100
- Emax values, Mean (hTA1; WT, mean of one experiment (3 replicates), β-PEA = 100): 100
- Emax values, Mean (hTA1; WT, single experiments (3 replicates each), β-PEA = 100): 100
- Dose-response curves for asenapine vs endogenous trace amines (hTA1; M = -5): 114.55 and 104.58 and 118.623 and 102.53 and 95.7683 and 107.085
- Dose-response curves for asenapine vs endogenous trace amines (hTA1; M = -5.522): 96.3904 and 87.8446 and 97.5922 and 98.0692 and 90.9789 and 92.0588
- Dose-response curves for asenapine vs endogenous trace amines (hTA1; M = -6): 88.2006 and 75.1148 and 94.0536 and 103.14 and 88.8658 and 89.805
- Dose-response curves for asenapine vs endogenous trace amines (hTA1; M = -6.522): 73.7573 and 64.299 and 91.1383 and 74.7791 and 68.7219 and 73.7461
- Dose-response curves for asenapine vs endogenous trace amines (hTA1; M = -7): 70.4636 and 45.5827 and 61.4726 and 66.5619 and 44.258 and 53.6961
- Dose-response curves for asenapine vs endogenous trace amines (hTA1; M = -7.522): 36.1467 and 21.3027 and 35.9464 and 26.7905 and 17.9158 and 22.3766
- Dose-response curves for asenapine vs endogenous trace amines (hTA1; M = -8): 22.727 and 16.7405 and 21.3472 and 13.3611 and 11.9525 and 11.6238
- Dose-response curves for asenapine vs endogenous trace amines (hTA1; M = -8.522): 4.5 and 4.523 and 5.969 and 4.393 and 2.514 and 2.6083
- Dose-response curves for asenapine vs endogenous trace amines (hTA1; M = -9): 1.986 and 1.318 and 1.8743 and 1.716 and 1.012 and 1.106
- Dose-response curves for asenapine vs endogenous trace amines (hTA1; M = -9.522): -1.063 and -1.33 and -0.4402 and -0.06817 and 0.1666 and -0.4908
- Dose-response curves for asenapine vs endogenous trace amines (hTA1; M = -10): -0.596 and -1.264 and -0.5515 and -0.4438 and -0.7725 and -0.6786
- Dose-response curves for asenapine vs endogenous trace amines (hTA1; M = -10.522): -1.3749 and -1.931 and -0.6405 and 0.0727 and -0.5847 and -1.101
- Dose-response curves for asenapine vs endogenous trace amines (hTA1; M = -11): -0.1286 and -1.241 and 0.2497 and 0.6362 and -0.3499 and -0.7725
- Dose-response curves for asenapine vs endogenous trace amines (hTA1; M = -11.522): -0.01735 and -1.575 and -0.7963 and 0.5892 and -0.3969 and -0.256
- Dose-response curves for asenapine vs endogenous trace amines (hTA1; M = -12): -1.353 and -1.3749 and -1.286 and 0.02574 and -0.4908 and -0.3029
- Dose-response curves for asenapine vs endogenous trace amines (hTA1; M = -12.522): -1.152 and -1.664 and -0.9075 and 0.5892 (2×) and 0.4483
- Span ± SEM (Emax normalized to β-PEA) (hTA1; wt hTA1, HEK293T, n=3): 100 ± 2.26
- pEC50 ± SEM (hTA1; wt hTA1, HEK293T, n=3): 7.09 ± 0.05
- EC50 (hTA1; wt hTA1, HEK293T, n=3, read-out: EC50): 80.6 nM
- Emax (hTA1; wt hTA1, relative to β-PEA): 100.0%
- reduction in potency vs wild type (hTA1 V184P; V184P): 3 fold
- Span ± SEM (Emax normalized to β-PEA) (hTA1 V184P; V184P, n=2): 100 ± 1.96
- pEC50 ± SEM (hTA1 V184P; V184P, n=2): 6.49 ± 0.04
- EC50 (hTA1 V184P; V184P, n=2, read-out: EC50): 321 nM
- cAMP accumulation response, single replicate values (source data, Supplementary Figure 5) (hTA1 V184P; M = -5): 83.3536 and 92.5674 and 99.6475 and 104.399 and 96.8854 and 100.441
- cAMP accumulation response, single replicate values (source data, Supplementary Figure 5) (hTA1 V184P; M = -5.522): 95.962 and 88.397 and 84.7115 and 96.8487 and 73.2445 and 97.875
- cAMP accumulation response, single replicate values (source data, Supplementary Figure 5) (hTA1 V184P; M = -6): 78.5043 and 69.7754 and 70.1634 and 94.7595 and 71.9984 and 76.7632
- cAMP accumulation response, single replicate values (source data, Supplementary Figure 5) (hTA1 V184P; M = -6.522): 42.813 and 37.5757 and 33.5992 and 65.1077 and 56.2745 and 55.2115
- cAMP accumulation response, single replicate values (source data, Supplementary Figure 5) (hTA1 V184P; M = -7): 14.3957 and 16.7234 and 14.2987 and 30.7277 and 25.9995 and 32.4504
- cAMP accumulation response, single replicate values (source data, Supplementary Figure 5) (hTA1 V184P; M = -7.522): 8.4795 and 4.503 and 3.727 and 12.5114 and 6.1339 and 9.909
- cAMP accumulation response, single replicate values (source data, Supplementary Figure 5) (hTA1 V184P; M = -8): 2.078 and 0.1386 and 0.7205 and 5.731 and 6.5 and 4.265
- cAMP accumulation response, single replicate values (source data, Supplementary Figure 5) (hTA1 V184P; M = -8.522): 1.496 and -0.05538 and 0.3326 and 2.249 and 1.809 and 2.505
- cAMP accumulation response, single replicate values (source data, Supplementary Figure 5) (hTA1 V184P; M = -9): 1.011 and 0.1386 (2×) and 2.652 and -0.3902 and 1.626
- cAMP accumulation response, single replicate values (source data, Supplementary Figure 5) (hTA1 V184P; M = -9.522): 0.7205 and -0.2494 and 0.4296 and -0.02371 and -1.123 and -0.1703
- cAMP accumulation response, single replicate values (source data, Supplementary Figure 5) (hTA1 V184P; M = -10): 1.205 and -0.05538 and 0.3326 and -0.207 and -0.5002 and 0.4161
- cAMP accumulation response, single replicate values (source data, Supplementary Figure 5) (hTA1 V184P; M = -10.522): 0.8175 and 0.6235 and -0.1524 and -0.3169 and -1.27 and -0.6101
- cAMP accumulation response, single replicate values (source data, Supplementary Figure 5) (hTA1 V184P; M = -11): 0.04161 and -0.4433 and -0.1524 and 0.5261 and 0.1229 and -0.4269
- cAMP accumulation response, single replicate values (source data, Supplementary Figure 5) (hTA1 V184P; M = -11.522): 1.205 and 0.1386 and 0.2356 and 0.7826 and 0.5261 and 0.3062
- cAMP accumulation response, single replicate values (source data, Supplementary Figure 5) (hTA1 V184P; M = -12): 0.8175 (3×) and -0.3902 and -0.5735 and 0.0496
- cAMP accumulation response, single replicate values (source data, Supplementary Figure 5) (hTA1 V184P; M = -12.522): 2.175 and 1.496 and 1.205 and 0.08625 and 0.1962 and -0.7201
- ΔEmax values (each mutant value - WT average), Mean (hTA1 V184P; [1]): 0
- ΔpEC50 values (each mutant value - WT average), Mean (hTA1 V184P; [1]): -0.7478 and -0.4527
- pEC50 values, Mean (hTA1 V184P; hTA1 V184P mutant, Figure 3B source data, each grid row a separate experiment, 3 replicates): 6.346 and 6.641
- Emax values, Mean (hTA1 V184P; hTA1 V184P mutant, β-PEA set to 100, each grid row a separate experiment, 3 replicates): 100
- Span ± SEM (Emax normalized to β-PEA) (hTA1 b2N): 100 ± 3.11
- pEC50 ± SEM (hTA1 b2N): 7.59 ± 0.07
- EC50 (hTA1 b2N; read-out: EC50): 25.4 nM
- ΔEmax values (each mutant value - WT average) (hTA1 S107C; S107C mutant minus WT average): 0
- Emax values, Mean (hTA1 S107C; S107C mutant, β-PEA = 100, each line an independent experiment, 3 replicates): 100
- Span ± SEM (Emax normalized to β-PEA) (hTA1 S107C; S107C, n=2): 100 ± 3.55
- pEC50 ± SEM (hTA1 S107C; S107C, n=2): 6.69 ± 0.71
- EC50 (hTA1 S107C; S107C, n=2, read-out: EC50): 205 nM
- Emax values (hTA1 C88S; Mean of fit per experiment): 100
- pEC50 values (hTA1 C88S; Mean of fit per experiment): 7.013 and 7.137
- Span ± SEM (Emax normalized to β-PEA) (hTA1 C88S; n=2): 100 ± 2.93
- pEC50 ± SEM (hTA1 C88S; n=2): 7.08 ± 0.06
- EC50 (hTA1 C88S; n=2, read-out: EC50): 84.1 nM
